Reference: patent EP0531119B1, “N,N',N'-trisubstituted -5-bis-aminomethylene-1,3-dioxane-4,6-dione inhibitors of acyl-CoA: cholesterol-acyl transferase” (AMERICAN HOME PRODUCTS CORPORATION, priority 1991, dated 1993)

Legend:
[1] = test system: acyl-coenzyme A: cholesterol acyltransferase; experiment: Inhibition of intracellular cholesterol esterification (ACAT), test procedure of Ross et al.; assay type: cell-based; settings: for % Inhib, (Concentration - µM): 25 µM; for IC50: read-out: IC₅₀
Source text: The ability of the compounds of this invention to inhibit acyl-coenzyme A: cholesterol acyltransferase was established by initially showing that they inhibited intracellular cholesterol esterification by subjecting them to the standard experimental test procedure of Ross et al., J. Biol. Chem. 259 815 (1984). The results of these studies are presented in: Table I

[2] = test system: ¹⁴C-Cholesterol Absorption; experiment: In vivo 14C-cholesterol absorption in normal rats; settings: oral gavage, blood samples six hours later
Protocol: Representative compounds were further tested in vivo to establish the percent inhibition of cholesterol absorption. In this study, normal rats were dosed (oral gavage) with ¹⁴C-cholesterol plus the test compound. Blood samples taken exactly six hours later were analyzed and the percent inhibition of cholesterol absorption was calculated as shown in: Table II

plasma cholesterol = experiment: Cholesterol-cholic acid fed rat, decrease of plasma cholesterol; assay type: in vivo; settings: 10 mg/kg, oral gavage just prior to and just following feeding, four days
Protocol: In addition, the product of Example 1 was studied in vivo in the cholesterol-cholic acid fed rat to determine the percent decrease of cholesterol in their plasma This study involves rats which are, prior to testing, trained for one week to eat over a four hour time period each day. Upon initiation of the experiment, the rats diet is supplemented with 1.0 percent cholesterol and 0.25 percent cholic acid. The rats are dosed with the test compound by oral gavage just prior to and just following the four hour feeding period. This is repeated for four days. On the fifth day, the rats are sacrificed and the total plasma cholesterol content is determined. The percent decrease in elevated plasma cholesterol levels is calculated in comparison with […] controls.

Row | Structure (SMILES) | % Inhib, (Concentration - µM) [1] | IC50 [1] | % Inhibition of Absorption ([2]; dose 10 mg/kg) | decrease in plasma cholesterol (plasma cholesterol) | % Inhibition of Absorption ([2]; dose 3 mg/kg)
1 | CCCCCCN(Cc1ccnc2ccccc12)C(Nc1cc(C(C)(C)C)c(O)c(C(C)(C)C)c1)=C1C(=O)OC(C)(C)OC1=O [Example 1, 5-[[[3,5-Bis(1,1-dimethylethyl)-4-hydroxyphenyl]amino][hexyl(4-quinolinylmethyl)amino]methylene]-2,2-dimethyl-1,3-dioxane-4,6-dione] | 69 (25) % | 2960 nM | 72% | 50% | 
2 | CCCCCCN(Cc1ccnc2ccccc12)C(Nc1ccc(OC)cc1OC)=C1C(=O)OC(C)(C)OC1=O [Example 2, 5-[[(2,4-Dimethoxyphenyl)amino][hexyl(4-quinolinylmethyl)amino]methylene]-2,2-dimethyl-1,3-dioxane-4,6-dione] |  |  |  |  | 2%
3 | CCCCCCN(Cc1ccc2ccccc2n1)C(Nc1cc(C(C)(C)C)c(O)c(C(C)(C)C)c1)=C1C(=O)OC(C)(C)OC1=O [Example 3, 5-[[[3,5-Bis(1,1-dimethylethyl)-4-hydroxyphenyl]amino][hexyl(2-quinolinylmethyl)amino]methylene]-2,2-dimethyl-1,3-dioxane-4,6-dione] | 55 (25) % | 2330 nM |  |  | 11%
4 | CCCCCCN(Cc1ccc2ccccc2n1)C(Nc1ccc(OC)cc1OC)=C1C(=O)OC(C)(C)OC1=O [Example 4, 5-[[(2,4-Dimethoxyphenyl)amino][hexyl(2-quinolinylmethyl)amino]methylene]-2,2-dimethyl-1,3-dioxane-4,6-dione] | 72 (25) % | 5160 nM |  |  | 
5 | CCCCCC(C)N(Cc1ccc2ccccc2n1)C(Nc1ccc(OC)cc1OC)=C1C(=O)OC(C)(C)OC1=O (stereo not drawn) [Example 5] | 90 (25) % | 2420 nM |  |  | 
6 | CCCCCC(C)N(Cc1ccc2ccccc2n1)C(Nc1cc(C(C)(C)C)c(O)c(C(C)(C)C)c1)=C1C(=O)OC(C)(C)OC1=O (stereo not drawn) [Example 6] | 95 (25) % | 1550 nM |  |  | 
7 | CCCCCC(C)N(Cc1ccnc2ccccc12)C(Nc1ccc(OC)cc1OC)=C1C(=O)OC(C)(C)OC1=O (stereo not drawn) [Example 7, 5-[[(2,4-Dimethoxyphenyl)amino][(1-methylhexyl)(4-quinolinylmethyl)amino]methylene]-2,2-dimethyl-1,3-dioxane-4,6-dione] | 51 (25) % | 9410 nM |  |  | 
8 | CCCCCC(C)N(Cc1ccnc2ccccc12)C(Nc1cc(C(C)(C)C)c(O)c(C(C)(C)C)c1)=C1C(=O)OC(C)(C)OC1=O (stereo not drawn) [Example 8, 5-[[[3,5-Bis(1,1-dimethylethyl)-4-hydroxyphenyl]amino][(1-methylhexyl)(4-quinolinylmethyl)amino]methylene]-2,2-dimethyl-1,3-dioxane-4,6-dione] | 97 (25) % | 1650 nM |  |  | 
9 | CCCCCCN(Cc1cnc2ccccc2c1)C(Nc1cc(C(C)(C)C)c(O)c(C(C)(C)C)c1)=C1C(=O)OC(C)(C)OC1=O [Example 9, 5-[[[3,5-Bis(1,1-dimethylethyl)-4-hydroxyphenyl]amino][hexyl(3-quinolinylmethyl)amino]methylene]-2,2-dimethyl-1,3-dioxane-4,6-dione] | 98 (25) % | 1350 nM |  |  | 
10 | CCCCCCN(Cc1ccncc1)C(Nc1cc(C(C)(C)C)c(O)c(C(C)(C)C)c1)=C1C(=O)OC(C)(C)OC1=O [Example 10, 5-[(3,5-Di-tert-butyl-4-hydroxy-phenylamino)-(hexyl-(pyridin-4-ylmethyl)-amino)-methylene]-2,2-dimethyl-1,3-dioxane-4,6-dione] | 94 (25) % | 5820 nM |  |  | 
11 | CCCCCCN(Cc1ccncc1)C(Nc1ccc(OC)cc1OC)=C1C(=O)OC(C)(C)OC1=O [Example 11] | 24 (25) % |  |  |  | 
12 | CCCCCCN(Cc1ccccn1)C(Nc1cc(C(C)(C)C)c(O)c(C(C)(C)C)c1)=C1C(=O)OC(C)(C)OC1=O [Example 12, 5-[(3,5-Di-tert-butyl-4-hydroxy-phenylamino)-(hexyl-(pyridin-2-ylmethyl)-amino]-methylene]-2,2-dimethyl-[1,3]-dioxane-4,6-dione] | 92 (25) % | 4110 nM | 65% |  | 
13 | CCCCCCN(Cc1ccccn1)C(Nc1ccc(OC)cc1OC)=C1C(=O)OC(C)(C)OC1=O [Example 13, 5-[(2,4-Dimethoxyphenylamino)-[hexyl-(pyridin-2-ylmethyl)-amino]-methylene]-2,2-dimethyl-[1,3]-dioxane-4,6-dione] | 26 (25) % |  |  |  | 
14 | CCCCCCN(Cc1cccnc1)C(Nc1ccc(OC)cc1OC)=C1C(=O)OC(C)(C)OC1=O [Example 14, 5-[(2,4-Dimethoxy-phenylamino)-[hexyl-(pyridin-3-ylmethyl)-amino]-methylene]-2,2-dimethyl-[1,3]-dioxane-4,6-dione] | 18 (25) % |  |  |  | 
15 | CCCCCCN(Cc1cccnc1)C(Nc1cc(C(C)(C)C)c(O)c(C(C)(C)C)c1)=C1C(=O)OC(C)(C)OC1=O [Example 15, 5-[(3,5-Di-tert-butyl-4-hydroxy-phenylamino)-[hexyl-(pyridin-3-ylmethyl)-amino]-methylene]-2,2-dimethyl-1,3-dioxane-4,6-dione] | 97 (25) % | 3900 nM |  |  | 48%
16 | CCCCCCCN(Cc1ccc(CC(C)(C)C)s1)C(Nc1ccc(OC)cc1OC)=C1C(=O)OC(C)(C)OC1=O [Example 16, 5-[[(2,4-Dimethoxyphenyl)amino][[[5-(2,2-dimethylpropyl)-2-thienyl]methyl]heptylamino]-methylene]-2,2-dimethyl-1,3-dioxane-4,6-] | 94 (25) % | 2960 nM |  |  | 
17 | CCCCCCCN(Cc1ccc(CC(C)(C)C)s1)C(Nc1cc(C(C)(C)C)c(O)c(C(C)(C)C)c1)=C1C(=O)OC(C)(C)OC1=O [Example 17, 5-[[[3,5-Bis(1,1-dimethylethyl)-4-hydroxyphenyl]amino][[[5-(2,2-dimethylpropyl)-2-thienyl]methyl]heptylamino]methylene]-2,2-dimethyl-1,3-dioxane-4,6-dione] |  | 700 nM |  |  | 
18 | CCCCCC(C)N(Cc1ccc(CC(C)(C)C)s1)C(Nc1ccc(OC)cc1OC)=C1C(=O)OC(C)(C)OC1=O (stereo not drawn) [Example 18, 5-[[(2,4-Dimethoxyphenyl)amino][[[5-(2,2-dimethylpropyl)-2-thienyl]methyl](1-methylhexyl)-amino]methylene]-2,2-dimethyl-1,3-dioxane-4,6-dione] | 97 (25) % |  |  |  | 
19 | CCCCCCC(C)N(Cc1ccc(CC(C)(C)C)s1)C(Nc1cc(C(C)(C)C)c(O)c(C(C)(C)C)c1)=C1C(=O)OC(C)(C)OC1=O (stereo not drawn) [Example 19, 5-[[[3,5-Bis(1,1-dimethylethyl)-4-hydroxyphenyl]amino][[[5-(2,2-dimethylpropyl)-2-thienyl]methyl](1-methylheptyl)amino]methylene]-2,2-dimethyl-1,3-dioxane-4,6-dione] |  | 640 nM |  |  | 
20 | COc1ccc(NC(NC(c2ccc(CC(C)(C)C)s2)C2CCCCC2)=C2C(=O)OC(C)(C)OC2=O)c(OC)c1 (stereo not drawn) [Example 20, 5-[[[Cyclohexyl-[5-(2,2-dimethylpropyl)-2-thienyl]methyl]amino]-[(2,4-dimethoxyphenyl)amino]-methylene]-2,2-dimethyl-1,3-dioxane-4,6-dione] | 95 (25) % |  |  |  | 
21 | CCCCCCN(Cc1csc2ccccc12)C(Nc1cc(C(C)(C)C)c(O)c(C(C)(C)C)c1)=C1C(=O)OC(C)(C)OC1=O [Example 21, 5-[(Benzo[b]thiophen-3-ylmethyl-hexyl-amino)-(3,5-di-tert-butyl-4-hydroxy-phenylamino)-methylene]-2,2-dimethyl-[1,3]dioxane-4,6-dione] | 98 (25) % | 380 nM |  |  | 
22 | CCCCCCN(Cc1cc2ccccc2s1)C(Nc1ccc(OC)cc1OC)=C1C(=O)OC(C)(C)OC1=O [Example 22, 5-[[(Benzo[b]thiophen-2-ylmethyl)-hexyl-amino]-(2,4-dimethoxyphenylamino)-methylene]-2,2-dimethyl-[1,3]dioxane-4,6-] | 94 (25) % | 620 nM |  |  | 
23 | CCCCCC(C)N(Cc1cc2ccccc2s1)C(Nc1ccc(OC)cc1OC)=C1C(=O)OC(C)(C)OC1=O (stereo not drawn) [Example 23, 5-[[Benzo[b]thiophen-2-ylmethyl-(1-methyl-hexyl)-amino]-(2,4-dimethoxy-phenylamino)-methylene]-2,2-dimethyl-[1,3]dioxane-4,6-dione] | 97 (25) % | 350 nM |  |  | 
24 | CCCCCC(C)N(Cc1cc2ccccc2s1)C(Nc1cc(C(C)(C)C)c(O)c(C(C)(C)C)c1)=C1C(=O)OC(C)(C)OC1=O (stereo not drawn) [Example 24, 5-[[Benzo[b]thiophen-2-ylmethyl-(1-methyl-hexyl)-amino]-(3,5-di-tert-butyl-4-hydroxy-phenylamino)methylene]-2,2-dimethyl-[1,3]dioxane-4,6-dione] | 98 (25) % | 310 nM |  |  | 
